According to ChEMBL document CHEMBL1144385, “Solid-phase synthesis and antibacterial evaluations of N-demethylvancomycin derivatives” (2005):
≈ marks a conversion by molar mass, not a printed value.

Columns and labels:
Assay type in all cases: functional
Enterococcus faecalis [1] = assay: Minimum inhibitory concentration against growth of Enterococcus faecalis (ATCC 29212)
Staphylococcus aureus [2] = assay: Minimum inhibitory concentration against growth of Methicillin resistant […] aureus
Staphylococcus aureus [3] = assay: Minimum inhibitory concentration against growth of […] aureus (ATCC 29213)
Enterococcus faecalis [4] = assay: Minimum inhibitory concentration against growth of vancomycin-resistant Enterococcus faecalis (ATCC 51299)

Structure (SMILES)	MIC (Enterococcus faecalis [1]) [µg/mL]	MIC (Staphylococcus aureus [2]) [µg/mL]	MIC (Staphylococcus aureus [3]) [µg/mL]	MIC (Enterococcus faecalis [4]) [µg/mL]
CN[C@H](CC(C)C)C(=O)N[C@H]1C(=O)N[C@@H](CC(N)=O)C(=O)N[C@H]2C(=O)N[C@H]3C(=O)N[C@H](C(=O)N[C@H](C(=O)NCC(=O)O)c4cc(O)cc(O)c4-c4cc3ccc4O)[C@H](O)c3ccc(c(Cl)c3)Oc3cc2cc(c3O[C@@H]2O[C@@H](CO)[C@@H](O)[C@H](O)[C@@H]2O[C@H]2C[C@](C)(NC(=O)OCC3c4ccccc4-c4ccccc43)[C@H](O)[C@H](C)O2)Oc2ccc(cc2Cl)[C@H]1O	10 (≈ 5.79 µM)	5 (≈ 2.89 µM)	> 10	5 (≈ 2.89 µM)
CCC(CC)N[C@H](CC(C)C)C(=O)N[C@H]1C(=O)N[C@@H](CC(N)=O)C(=O)N[C@H]2C(=O)N[C@H]3C(=O)N[C@H](C(=O)N[C@H](C(=O)NCC(=O)O)c4cc(O)cc(O)c4-c4cc3ccc4O)[C@H](O)c3ccc(c(Cl)c3)Oc3cc2cc(c3O[C@@H]2O[C@@H](CO)[C@@H](O)[C@H](O)[C@@H]2O[C@H]2C[C@](C)(N)[C@H](O)[C@H](C)O2)Oc2ccc(cc2Cl)[C@H]1O	> 10	10 (≈ 6.4 µM)	10 (≈ 6.4 µM)	> 10
CCCN(CCC)[C@H](CC(C)C)C(=O)N[C@H]1C(=O)N[C@@H](CC(N)=O)C(=O)N[C@H]2C(=O)N[C@H]3C(=O)N[C@H](C(=O)N[C@H](C(=O)NCC(=O)O)c4cc(O)cc(O)c4-c4cc3ccc4O)[C@H](O)c3ccc(c(Cl)c3)Oc3cc2cc(c3O[C@@H]2O[C@@H](CO)[C@@H](O)[C@H](O)[C@@H]2O[C@H]2C[C@](C)(Nc3ccc(OC)cc3)[C@H](O)[C@H](C)O2)Oc2ccc(cc2Cl)[C@H]1O	> 10	10 (≈ 5.94 µM)	> 10	> 10
CCC(CC)N[C@H](CC(C)C)C(=O)N[C@H]1C(=O)N[C@@H](CC(N)=O)C(=O)N[C@H]2C(=O)N[C@H]3C(=O)N[C@H](C(=O)N[C@H](C(=O)NCC(=O)O)c4cc(O)cc(O)c4-c4cc3ccc4O)[C@H](O)c3ccc(c(Cl)c3)Oc3cc2cc(c3O[C@@H]2O[C@@H](CO)[C@@H](O)[C@H](O)[C@@H]2O[C@H]2C[C@](C)(Nc3ccc(OC)cc3)[C@H](O)[C@H](C)O2)Oc2ccc(cc2Cl)[C@H]1O	> 10	> 10	> 10	> 10
C/C=C/CN(C/C=C/C)[C@H](CC(C)C)C(=O)N[C@H]1C(=O)N[C@@H](CC(N)=O)C(=O)N[C@H]2C(=O)N[C@H]3C(=O)N[C@H](C(=O)N[C@H](C(=O)NCC(=O)O)c4cc(O)cc(O)c4-c4cc3ccc4O)[C@H](O)c3ccc(c(Cl)c3)Oc3cc2cc(c3O[C@@H]2O[C@@H](CO)[C@@H](O)[C@H](O)[C@@H]2O[C@H]2C[C@](C)(Nc3ccc(OC)cc3)[C@H](O)[C@H](C)O2)Oc2ccc(cc2Cl)[C@H]1O	> 10	> 10	10 (≈ 5.86 µM)	> 10
C/C=C/CN[C@H](CC(C)C)C(=O)N[C@H]1C(=O)N[C@@H](CC(N)=O)C(=O)N[C@H]2C(=O)N[C@H]3C(=O)N[C@H](C(=O)N[C@H](C(=O)NCC(=O)O)c4cc(O)cc(O)c4-c4cc3ccc4O)[C@H](O)c3ccc(c(Cl)c3)Oc3cc2cc(c3O[C@@H]2O[C@@H](CO)[C@@H](O)[C@H](O)[C@@H]2O[C@H]2C[C@](C)(Nc3ccc(OC)cc3)[C@H](O)[C@H](C)O2)Oc2ccc(cc2Cl)[C@H]1O	> 10	10 (≈ 6.05 µM)	10 (≈ 6.05 µM)	> 10
CCC(CC)N[C@H](CC(C)C)C(=O)N[C@H]1C(=O)N[C@@H](CC(N)=O)C(=O)N[C@H]2C(=O)N[C@H]3C(=O)N[C@H](C(=O)N[C@H](C(=O)NCC(=O)O)c4cc(O)cc(O)c4-c4cc3ccc4O)[C@H](O)c3ccc(c(Cl)c3)Oc3cc2cc(c3O[C@@H]2O[C@@H](CO)[C@@H](O)[C@H](O)[C@@H]2O[C@H]2C[C@](C)(Nc3ccc(Cl)cc3)[C@H](O)[C@H](C)O2)Oc2ccc(cc2Cl)[C@H]1O	> 10	> 10	> 10	> 10
CCCN[C@H](CC(C)C)C(=O)N[C@H]1C(=O)N[C@@H](CC(N)=O)C(=O)N[C@H]2C(=O)N[C@H]3C(=O)N[C@H](C(=O)N[C@H](C(=O)NCC(=O)O)c4cc(O)cc(O)c4-c4cc3ccc4O)[C@H](O)c3ccc(c(Cl)c3)Oc3cc2cc(c3O[C@@H]2O[C@@H](CO)[C@@H](O)[C@H](O)[C@@H]2O[C@H]2C[C@](C)(Nc3ccc(Cl)cc3)[C@H](O)[C@H](C)O2)Oc2ccc(cc2Cl)[C@H]1O	> 10	10 (≈ 6.08 µM)	10 (≈ 6.08 µM)	> 10
CC(C)C[C@H](C(=O)N[C@H]1C(=O)N[C@@H](CC(N)=O)C(=O)N[C@H]2C(=O)N[C@H]3C(=O)N[C@H](C(=O)N[C@H](C(=O)NCC(=O)O)c4cc(O)cc(O)c4-c4cc3ccc4O)[C@H](O)c3ccc(c(Cl)c3)Oc3cc2cc(c3O[C@@H]2O[C@@H](CO)[C@@H](O)[C@H](O)[C@@H]2O[C@H]2C[C@](C)(Nc3cccnc3)[C@H](O)[C@H](C)O2)Oc2ccc(cc2Cl)[C@H]1O)N(CCc1ccccc1)CCc1ccccc1	> 10	> 10	> 10	> 10
CCC(CC)N[C@H](CC(C)C)C(=O)N[C@H]1C(=O)N[C@@H](CC(N)=O)C(=O)N[C@H]2C(=O)N[C@H]3C(=O)N[C@H](C(=O)N[C@H](C(=O)NCC(=O)O)c4cc(O)cc(O)c4-c4cc3ccc4O)[C@H](O)c3ccc(c(Cl)c3)Oc3cc2cc(c3O[C@@H]2O[C@@H](CO)[C@@H](O)[C@H](O)[C@@H]2O[C@H]2C[C@](C)(Nc3cccnc3)[C@H](O)[C@H](C)O2)Oc2ccc(cc2Cl)[C@H]1O	> 10	> 10	> 10	> 10
CC(C)C[C@H](C(=O)N[C@H]1C(=O)N[C@@H](CC(N)=O)C(=O)N[C@H]2C(=O)N[C@H]3C(=O)N[C@H](C(=O)N[C@H](C(=O)NCC(=O)O)c4cc(O)cc(O)c4-c4cc3ccc4O)[C@H](O)c3ccc(c(Cl)c3)Oc3cc2cc(c3O[C@@H]2O[C@@H](CO)[C@@H](O)[C@H](O)[C@@H]2O[C@H]2C[C@](C)(NC(=O)OCC3c4ccccc4-c4ccccc43)[C@H](O)[C@H](C)O2)Oc2ccc(cc2Cl)[C@H]1O)N(C)C(=O)OCC1c2ccccc2-c2ccccc21	10 (≈ 5.13 µM)	5 (≈ 2.56 µM)	> 10	5 (≈ 2.56 µM)
CCC(CC)N[C@H](CC(C)C)C(=O)N[C@H]1C(=O)N[C@@H](CC(N)=O)C(=O)N[C@H]2C(=O)N[C@H]3C(=O)N[C@H](C(=O)N[C@H](C(=O)NCC(=O)O)c4cc(O)cc(O)c4-c4cc3ccc4O)[C@H](O)c3ccc(c(Cl)c3)Oc3cc2cc(c3O[C@@H]2O[C@@H](CO)[C@@H](O)[C@H](O)[C@@H]2O[C@H]2C[C@](C)(Nc3ccc(F)cc3)[C@H](O)[C@H](C)O2)Oc2ccc(cc2Cl)[C@H]1O	> 10	> 10	> 10	> 10
CC(C)C[C@@H](N)C(=O)N[C@H]1C(=O)N[C@@H](CC(N)=O)C(=O)N[C@H]2C(=O)N[C@H]3C(=O)N[C@H](C(=O)N[C@H](C(=O)NCC(=O)O)c4cc(O)cc(O)c4-c4cc3ccc4O)[C@H](O)c3ccc(c(Cl)c3)Oc3cc2cc(c3O[C@@H]2O[C@@H](CO)[C@@H](O)[C@H](O)[C@@H]2O[C@H]2C[C@](C)(Nc3ccc(F)cc3)[C@H](O)[C@H](C)O2)Oc2ccc(cc2Cl)[C@H]1O	2.5 (≈ 1.58 µM)	2.5 (≈ 1.58 µM)	2.5 (≈ 1.58 µM)	> 10
CCCN(CCC)[C@H](CC(C)C)C(=O)N[C@H]1C(=O)N[C@@H](CC(N)=O)C(=O)N[C@H]2C(=O)N[C@H]3C(=O)N[C@H](C(=O)N[C@H](C(=O)NCC(=O)O)c4cc(O)cc(O)c4-c4cc3ccc4O)[C@H](O)c3ccc(c(Cl)c3)Oc3cc2cc(c3O[C@@H]2O[C@@H](CO)[C@@H](O)[C@H](O)[C@@H]2O[C@H]2C[C@](C)(Nc3ccc(F)cc3)[C@H](O)[C@H](C)O2)Oc2ccc(cc2Cl)[C@H]1O	> 10	> 10	> 10	> 10
CC(C)C[C@@H](Nc1ccc(F)cc1)C(=O)N[C@H]1C(=O)N[C@@H](CC(N)=O)C(=O)N[C@H]2C(=O)N[C@H]3C(=O)N[C@H](C(=O)N[C@H](C(=O)NCC(=O)O)c4cc(O)cc(O)c4-c4cc3ccc4O)[C@H](O)c3ccc(c(Cl)c3)Oc3cc2cc(c3O[C@@H]2O[C@@H](CO)[C@@H](O)[C@H](O)[C@@H]2O[C@H]2C[C@](C)(Nc3ccc(F)cc3)[C@H](O)[C@H](C)O2)Oc2ccc(cc2Cl)[C@H]1O	> 10	> 10	> 10	> 10
CC(C)C[C@@H](NC(=O)OCC1c2ccccc2-c2ccccc21)C(=O)N[C@H]1C(=O)N[C@@H](CC(N)=O)C(=O)N[C@H]2C(=O)N[C@H]3C(=O)N[C@H](C(=O)N[C@H](C(=O)NCC(=O)O)c4cc(O)cc(O)c4-c4cc3ccc4O)[C@H](O)c3ccc(c(Cl)c3)Oc3cc2cc(c3O[C@@H]2O[C@@H](CO)[C@@H](O)[C@H](O)[C@@H]2O[C@H]2C[C@](C)(N)[C@H](O)[C@H](C)O2)Oc2ccc(cc2Cl)[C@H]1O	5 (≈ 2.92 µM)	5 (≈ 2.92 µM)	1.25 (≈ 0.729 µM)	> 10
CC(C)C[C@H](C(=O)N[C@H]1C(=O)N[C@@H](CC(N)=O)C(=O)N[C@H]2C(=O)N[C@H]3C(=O)N[C@H](C(=O)N[C@H](C(=O)NCC(=O)O)c4cc(O)cc(O)c4-c4cc3ccc4O)[C@H](O)c3ccc(c(Cl)c3)Oc3cc2cc(c3O[C@@H]2O[C@@H](CO)[C@@H](O)[C@H](O)[C@@H]2O[C@H]2C[C@](C)(N)[C@H](O)[C@H](C)O2)Oc2ccc(cc2Cl)[C@H]1O)N(C)C(=O)OCC1c2ccccc2-c2ccccc21	10 (≈ 5.79 µM)	10 (≈ 5.79 µM)	10 (≈ 5.79 µM)	> 10
